{
  "source": "patent US20140228543A1",
  "about": "“MODIFIED AND DERIVATIZED ß-GLUCAN COMPOUNDS, COMPOSITIONS, AND METHODS” (Biothera, Inc., priority 2011, published 2014)",
  "key": {"human neutrophils [1]": {"system": "human neutrophils", "experiment": "iC3b deposition on neutrophils (flow cytometry)", "type": "cell-based", "conditions": "200 μg/mL hexose concentration, 2 hr, 37° C., 10% serum", "experimental": "This ability was evaluated by comparing the levels of iC3b complement fragment detected on human neutrophils with the derivative versus parent β-glucan-bound.\nEnriched neutrophils were resuspended at 1×10^6 cells/mL in RPMI 1640 supplemented with 10% serum. The parent or the derivatized glucans at 200, μg/mL hexose concentration were added to neutrophils and incubated in a 37° C., 5% C02 humidified incubator for 2 hr. After incubation, cells were washed twice with FACS buffer (HBSS supplemented with 1% FBS and 0.1% sodium azide) to remove any unbound β-glucan, stained with a neo-epitope specific anti-iC3b Ab and PE-conjugated goat anti-mouse IgG and subsequently analyzed by flow cytometry.\nTable 1 below lists the fold change of mean fluorescence intensity (MFI) values of iC3b staining on neutrophils treated with each of the parent or derivatized glucans over that of PBS control-treated cells."}, "human neutrophils [2]": {"system": "human neutrophils", "experiment": "β-glucan binding on neutrophils (BfD IV staining, flow cytometry)", "type": "cell-based", "conditions": "200 μg/mL hexose concentration, 2 hr, 37° C., 10% serum", "experimental": "This ability was evaluated by comparing the levels of neutrophil-bound parent versus the derivatives of β-glucans detected by BfD IV, a monoclonal antibody (MAb) specific for β-1,3/1,6 glucans. […] Table 2 lists the fold change of MFI values of BfD IV staining on neutrophils treated with each of the parent and derivatized glucans over that of PBS control-treated cells.\nEnriched neutrophils were resuspended at 1×10^6 cells/mL in RPMI 1640 supplemented with 10% serum. The parent or the derivatized glucans at 200, μg/mL hexose concentration were added to neutrophils and incubated in a 37° C., 5% CO2 humidified incubator for 2 hr. After incubation, cells were washed twice with FACS buffer (HBSS supplemented with 1% FBS and 0.1% sodium azide) to remove any unbound β-glucan, and subsequently treated with Fc block. Post Fc block step, cells were stained with the BfD IV Ab for 30 min at 4° C. and washed twice with cold FACS buffer. Cells were then incubated with FITC-conjugated F(ab′)2 goat anti-mouse IgM for 30 min at 4° C. and washed once with cold FACS buffer before fixing with 1% paraformaldehyde. Events were collected on a LSRII flow cytometer and analysis was performed using FlowJo software.\nTable 2 summarizes the fold change of MFI values of BfD IV staining on neutrophils treated with each of the parent, or derivatized β-glucans, over that of PBS control-treated cells."}},
  "data": [
    {"substance": "Benzyl Amine Reducing End MMW Yeast Glucan Analog [BT-1275]", "values": [
      {"measurement": "Approximate Fold Increase/Decrease in MFI over Parent Compound (iC3b)", "setting": "human neutrophils [1]", "result": 0.9, "unit": "fold"},
      {"measurement": "MFI(ic3b) compound/MFI(ic3b) PBS", "setting": "human neutrophils [1]", "result": "1.7 ± 0.1"},
      {"measurement": "Approximate Fold Increase/Decrease in MFI over Parent Compound (BfD IV)", "setting": "human neutrophils [2]", "result": 0.6, "unit": "fold"},
      {"measurement": "MFI(BID IV) compound/MFI(BID IV) PBS", "setting": "human neutrophils [2]", "result": "2.4 ± 1.2"}
    ]},
    {"substance": "Laminarin [Laminarin (parent), reference compound]", "values": [
      {"measurement": "MFI(ic3b) compound/MFI(ic3b) PBS", "setting": "human neutrophils [1]", "result": 1.3},
      {"measurement": "MFI(BID IV) compound/MFI(BID IV) PBS", "setting": "human neutrophils [2]", "result": 1.1}
    ]},
    {"substance": "Mannose Propyl Amine MMW Yeast Glucan Analog [BT-1243]", "values": [
      {"measurement": "Approximate Fold Increase/Decrease in MFI over Parent Compound (iC3b)", "setting": "human neutrophils [1]", "result": 4.3, "unit": "fold"},
      {"measurement": "MFI(ic3b) compound/MFI(ic3b) PBS", "setting": "human neutrophils [1]", "result": "8.6 ± 0.3"},
      {"measurement": "Approximate Fold Increase/Decrease in MFI over Parent Compound (BfD IV)", "setting": "human neutrophils [2]", "result": 4.7, "unit": "fold"},
      {"measurement": "MFI(BID IV) compound/MFI(BID IV) PBS", "setting": "human neutrophils [2]", "result": "19.7 ± 13.4"}
    ]},
    {"substance": "Lactose Propyl Amine MMW Yeast Glucan Analog [BT-1244]", "values": [
      {"measurement": "Approximate Fold Increase/Decrease in MFI over Parent Compound (iC3b)", "setting": "human neutrophils [1]", "result": 1.5, "unit": "fold"},
      {"measurement": "MFI(ic3b) compound/MFI(ic3b) PBS", "setting": "human neutrophils [1]", "result": "3.0 ± 0.1"},
      {"measurement": "Approximate Fold Increase/Decrease in MFI over Parent Compound (BfD IV)", "setting": "human neutrophils [2]", "result": 1.0, "unit": "fold"},
      {"measurement": "MFI(BID IV) compound/MFI(BID IV) PBS", "setting": "human neutrophils [2]", "result": "4.0 ± 1.9"}
    ]},
    {"substance": "Benzyl Amine LMW Yeast Glucan Analog [BT-1273]", "values": [
      {"measurement": "Approximate Fold Increase/Decrease in MFI over Parent Compound (iC3b)", "setting": "human neutrophils [1]", "result": 2.2, "unit": "fold"},
      {"measurement": "MFI(ic3b) compound/MFI(ic3b) PBS", "setting": "human neutrophils [1]", "result": 2.4},
      {"measurement": "Approximate Fold Increase/Decrease in MFI over Parent Compound (BfD IV)", "setting": "human neutrophils [2]", "result": 11.3, "unit": "fold"},
      {"measurement": "MFI(BID IV) compound/MFI(BID IV) PBS", "setting": "human neutrophils [2]", "result": 17.0}
    ]},
    {"substance": "Maltose Propyl Amine MMW Yeast Glucan Analog [BT-1248]", "values": [
      {"measurement": "Approximate Fold Increase/Decrease in MFI over Parent Compound (iC3b)", "setting": "human neutrophils [1]", "result": 1.8, "unit": "fold"},
      {"measurement": "MFI(ic3b) compound/MFI(ic3b) PBS", "setting": "human neutrophils [1]", "result": "3.5 ± 0.4"},
      {"measurement": "Approximate Fold Increase/Decrease in MFI over Parent Compound (BfD IV)", "setting": "human neutrophils [2]", "result": 1.1, "unit": "fold"},
      {"measurement": "MFI(BID IV) compound/MFI(BID IV) PBS", "setting": "human neutrophils [2]", "result": "4.7 ± 3.8"}
    ]},
    {"substance": "Tryptophan MMW Yeast Glucan Analog [BT-1220]", "values": [
      {"measurement": "Approximate Fold Increase/Decrease in MFI over Parent Compound (iC3b)", "setting": "human neutrophils [1]", "result": 5.1, "unit": "fold"},
      {"measurement": "MFI(ic3b) compound/MFI(ic3b) PBS", "setting": "human neutrophils [1]", "result": 10.1},
      {"measurement": "Approximate Fold Increase/Decrease in MFI over Parent Compound (BfD IV)", "setting": "human neutrophils [2]", "result": 4.8, "unit": "fold"},
      {"measurement": "MFI(BID IV) compound/MFI(BID IV) PBS", "setting": "human neutrophils [2]", "result": 20.3}
    ]},
    {"substance": "Mannose Propyl Amine Scleroglucan Analog [BT-1290]", "values": [
      {"measurement": "Approximate Fold Increase/Decrease in MFI over Parent Compound (iC3b)", "setting": "human neutrophils [1]", "result": 0.7, "unit": "fold"},
      {"measurement": "MFI(ic3b) compound/MFI(ic3b) PBS", "setting": "human neutrophils [1]", "result": 1.1},
      {"measurement": "Approximate Fold Increase/Decrease in MFI over Parent Compound (BfD IV)", "setting": "human neutrophils [2]", "result": 0.7, "unit": "fold"},
      {"measurement": "MFI(BID IV) compound/MFI(BID IV) PBS", "setting": "human neutrophils [2]", "result": 1.4}
    ]},
    {"substance": "Scleroglucan [Scleroglucan (parent), reference compound]", "values": [
      {"measurement": "MFI(ic3b) compound/MFI(ic3b) PBS", "setting": "human neutrophils [1]", "result": 1.6},
      {"measurement": "MFI(BID IV) compound/MFI(BID IV) PBS", "setting": "human neutrophils [2]", "result": 1.9}
    ]},
    {"substance": "Galactose Propyl Amine MMW Yeast Glucan Analog [BT-1245]", "values": [
      {"measurement": "Approximate Fold Increase/Decrease in MFI over Parent Compound (iC3b)", "setting": "human neutrophils [1]", "result": 2.3, "unit": "fold"},
      {"measurement": "MFI(ic3b) compound/MFI(ic3b) PBS", "setting": "human neutrophils [1]", "result": "4.5 ± 1.2"},
      {"measurement": "Approximate Fold Increase/Decrease in MFI over Parent Compound (BfD IV)", "setting": "human neutrophils [2]", "result": 1.6, "unit": "fold"},
      {"measurement": "MFI(BID IV) compound/MFI(BID IV) PBS", "setting": "human neutrophils [2]", "result": "6.6 ± 3.78"}
    ]},
    {"substance": "Mannose Propyl Amine LMW Yeast Glucan Analog [BT-1278]", "values": [
      {"measurement": "Approximate Fold Increase/Decrease in MFI over Parent Compound (iC3b)", "setting": "human neutrophils [1]", "result": 0.9, "unit": "fold"},
      {"measurement": "MFI(ic3b) compound/MFI(ic3b) PBS", "setting": "human neutrophils [1]", "result": 1.0},
      {"measurement": "Approximate Fold Increase/Decrease in MFI over Parent Compound (BfD IV)", "setting": "human neutrophils [2]", "result": 0.9, "unit": "fold"},
      {"measurement": "MFI(BID IV) compound/MFI(BID IV) PBS", "setting": "human neutrophils [2]", "result": 1.3}
    ]},
    {"substance": "S-(+)-2-Phenyl Glycinol MMW Yeast Glucan Analog [BT-1300]", "values": [
      {"measurement": "Approximate Fold Increase/Decrease in MFI over Parent Compound (iC3b)", "setting": "human neutrophils [1]", "result": 0.8, "unit": "fold"},
      {"measurement": "MFI(ic3b) compound/MFI(ic3b) PBS", "setting": "human neutrophils [1]", "result": 1.6},
      {"measurement": "Approximate Fold Increase/Decrease in MFI over Parent Compound (BfD IV)", "setting": "human neutrophils [2]", "result": 0.6, "unit": "fold"},
      {"measurement": "MFI(BID IV) compound/MFI(BID IV) PBS", "setting": "human neutrophils [2]", "result": 2.5}
    ]},
    {"substance": "Propyl Amine MMW Yeast Glucan Analog [BT-1267]", "values": [
      {"measurement": "Approximate Fold Increase/Decrease in MFI over Parent Compound (iC3b)", "setting": "human neutrophils [1]", "result": 4.0, "unit": "fold"},
      {"measurement": "MFI(ic3b) compound/MFI(ic3b) PBS", "setting": "human neutrophils [1]", "result": "8.0 ± 3.9"},
      {"measurement": "Approximate Fold Increase/Decrease in MFI over Parent Compound (BfD IV)", "setting": "human neutrophils [2]", "result": 5.6, "unit": "fold"},
      {"measurement": "MFI(BID IV) compound/MFI(BID IV) PBS", "setting": "human neutrophils [2]", "result": "23.6 ± 16.4"}
    ]},
    {"substance": "Galactose Propyl Amine Dextran Analog [BT-1286]", "values": [
      {"measurement": "Approximate Fold Increase/Decrease in MFI over Parent Compound (iC3b)", "setting": "human neutrophils [1]", "result": 0.9, "unit": "fold"},
      {"measurement": "MFI(ic3b) compound/MFI(ic3b) PBS", "setting": "human neutrophils [1]", "result": 1.0},
      {"measurement": "Approximate Fold Increase/Decrease in MFI over Parent Compound (BfD IV)", "setting": "human neutrophils [2]", "result": 1.0, "unit": "fold"},
      {"measurement": "MFI(BID IV) compound/MFI(BID IV) PBS", "setting": "human neutrophils [2]", "result": 1.0}
    ]},
    {"substance": "Tyrosine MMW Yeast Glucan Analog [BT-1297]", "values": [
      {"measurement": "Approximate Fold Increase/Decrease in MFI over Parent Compound (iC3b)", "setting": "human neutrophils [1]", "result": 1.2, "unit": "fold"},
      {"measurement": "MFI(ic3b) compound/MFI(ic3b) PBS", "setting": "human neutrophils [1]", "result": 2.3},
      {"measurement": "Approximate Fold Increase/Decrease in MFI over Parent Compound (BfD IV)", "setting": "human neutrophils [2]", "result": 0.5, "unit": "fold"},
      {"measurement": "MFI(BID IV) compound/MFI(BID IV) PBS", "setting": "human neutrophils [2]", "result": 2.2}
    ]}
  ]
}
